# Measurements published in patent publication US8796466B2, “Hepatitis C virus inhibitors” (Bristol-Myers Squibb Company, priority 2009, dated 2014).
# Tested on: HCV 1b genotype
# Experiment: HCV Replicon assay (HCV 1b genotype)
# Format: cell-based, Hepatitis C virus
# Conditions: HCV 1b genotype replicon; class symbol; read-out: Range (EC50 values against HCV 1b)
# Description: An HCV Replicon assay was utilized in the present disclosure, and was prepared, conducted and validated as described in commonly owned PCT/US2006/022197 and in O'Boyle et. al. Antimicrob Agents Chemother. 2005 April; 49(4):1346-53. Assay methods incorporating luciferase reporters have also been used as described (Apath.com).
# HCV-neo replicon cells and replicon cells containing mutations in the NS5A region were used to test the currently described family of compounds. The compounds were determined to have more than 10-fold less inhibitory activity on cells containing mutations than wild-type cells. Thus, the compounds of the present disclosure can be effective in inhibiting the function of the HCV NS5A protein and are understood to be as effective in combinations as previously described in application PCT/US2006/022197 and commonly owned WO/04014852. Further, the compounds of the present disclosure can be effective against the HCV 1b genotype. It should also be understood that the compounds of the present disclosure can inhibit multiple genotypes of HCV. […] In one embodiment, compounds of the present disclosure are inhibitory versus 1a, 1b, 2a, 2b, 3a, 4a, and 5a genotypes.
row,Structure (SMILES),EC50
1,COC(=O)N[C@@H](C(=O)N1CCC[C@H]1c1nc(-c2ccc(COCc3cccc(-c4c[nH]c([C@@H]5CCCN5C(=O)[C@H](NC(=O)OC)c5ccccc5)n4)c3)cc2)c[nH]1)c1ccccc1 [OL-22],0.002 to 0.099 nM

# Same assay, conditions: Hepatitis C virus; HCV 1b genotype replicon; Effective 50% inhibitory concentration; read-out: 1b EC50
row,Structure (SMILES),EC50
1,"O=C([C@H](O)c1ccccc1)N1CCC[C@H]1c1nc(-c2ccc(Oc3ccc(-c4cnc([C@@H]5CCCN5C(=O)[C@H](O)c5ccccc5)[nH]4)cc3)cc2)c[nH]1 [OL-2, (1R)-2-((2S)-2-(4-(4-(4-(2-((2S)-1-((2R)-2-hydroxy-2-phenylacetyl)-2-pyrrolidinyl)-1H-imidazol-5-yl)phenoxy)phenyl)-1H-imidazol-2-yl)-1-pyrrolidinyl)-2-oxo-1-phenylethanol]",9.1 nM
2,"COC(=O)N[C@H](C(=O)N1[C@@H]2C[C@@H]2C[C@H]1c1nc(-c2ccc(C#Cc3ccc(-c4c[nH]c([C@@H]5C[C@H]6C[C@H]6N5C(=O)[C@@H](NC(=O)OC)C5CCOCC5)n4)cc3)cc2)c[nH]1)C1CCOCC1 [Example M6, dimethyl (1,2-ethynediylbis(4,1-phenylene-1H-imidazole-4,2-diyl(1R,3S,5R)-2-azabicyclo[3.1.0]hexane-3,2-diyl((1S)-2-oxo-1-(tetrahydro-2H-pyran-4-yl)-2,1-ethanediyl)))biscarbamate]",0.0033 nM

# Same assay, conditions: Hepatitis C virus; HCV 1b genotype replicon; class symbol; read-out: Range (EC50 values against HCV 1b)
row,Structure (SMILES),EC50
1,"COC(=O)N[C@H](C(=O)N1C[C@@H](C)C[C@H]1c1ncc(-c2ccc(C#Cc3ccc(-c4cnc([C@@H]5C[C@H](C)CN5C(=O)[C@@H](NC(=O)OC)C5CCOCC5)[nH]4)cc3)cc2)[nH]1)C(C)C [Example M12.8, methyl ((1S)-2-((2S,4S)-2-(4-(4-((4-(2-((2S,4S)-1-((2S)-2-((methoxycarbonyl)amino)-3-methylbutanoyl)-4-methyl-2-pyrrolidinyl)-1H-imidazol-4-yl)phenyl)ethynyl)phenyl)-1H-imidazol-2-yl)-4-methyl-1-pyrrolidinyl)-2-oxo-1-(tetrahydro-2H-pyran-4-yl)ethyl)carbamate]",0.002 to 0.099 nM
2,"COC(=O)N[C@H](C(=O)N1[C@@H]2C[C@@H]2C[C@H]1c1nc(-c2ccc(C#Cc3ccc(-c4[nH]c([C@@H]5C[C@H]6C[C@H]6N5C(=O)[C@@H](NC(=O)OC)C(C)C)nc4Cl)cc3)cc2)c[nH]1)C(C)C [Example M8, methyl ((1S)-1-(((1R,3S,5R)-3-(4-chloro-5-(4-((4-(2-((1R,3S,5R)-2-((2S)-2-((methoxycarbonyl)amino)-3-methylbutanoyl)-2-azabicyclo[3.1.0]hex-3-yl)-1H-imidazol-4-yl)phenyl)ethynyl)phenyl)-1H-imidazol-2-yl)-2-azabicyclo[3.1.0]hex-2-yl)carbonyl)-2-methylpropyl)carbamate]",0.002 to 0.099 nM
3,"CN(C)[C@@H](C(=O)N1CCC[C@H]1c1ncc(-c2ccc(COc3ccc(-c4cnc([C@@H]5CCCN5C(=O)[C@@H](c5ccccc5)N(C)C)[nH]4)cc3)cc2)[nH]1)c1ccccc1 [OL-7, (1R)-2-((2S)-2-(4-(4-((4-(2-((2S)-1-((2R)-2-(dimethylamino)-2-phenylacetyl)-2-pyrrolidinyl)-1H-imidazol-4-yl)benzyl)oxy)phenyl)-1H-imidazol-2-yl)-1-pyrrolidinyl)-N,N-dimethyl-2-oxo-1-phenylethanamine]",0.002 to 0.099 nM
4,"COC(=O)N[C@@H](C(=O)N1CCC[C@H]1c1nc(-c2ccc(Oc3ccc(-c4c[nH]c([C@@H]5CCCN5C(=O)[C@H](NC(=O)OC)c5ccccc5)n4)cc3)cc2)c[nH]1)c1ccccc1 [OL-3, dimethyl (oxybis(4,1-phenylene-1H-imidazole-4,2-diyl(2S)-2,1-pyrrolidinediyl((1R)-2-oxo-1-phenyl-2,1-ethanediyl)))biscarbamate]",1 to 9.9 nM
5,"O=C(NC1CCCC1)N[C@@H](C(=O)N1CCC[C@H]1c1nc(-c2ccc(CCc3ccc(-c4cnc([C@@H]5CCCN5C(=O)[C@H](NC(=O)NC5CCCC5)c5ccccc5)[nH]4)cc3)cc2)c[nH]1)c1ccccc1 [OL-13, 1-cyclopentyl-3-((1R)-2-((2S)-2-(4-(4-(2-(4-(2-((2S)-1-((2R)-2-((cyclopentylcarbamoyl)amino)-2-phenylacetyl)-2-pyrrolidinyl)-1H-imidazol-5-yl)phenyl)ethyl)phenyl)-1H-imidazol-2-yl)-1-pyrrolidinyl)-2-oxo-1-phenylethyl)urea]",0.002 to 0.099 nM
6,"COC(=O)N[C@H](C(=O)N1[C@@H]2C[C@@H]2C[C@H]1c1ncc(-c2ccc(/C=C/c3ccc(-c4cnc([C@@H]5C[C@H]6C[C@H]6N5C(=O)[C@@H](NC(=O)OC)C(C)C)[nH]4)cc3)cc2)[nH]1)C(C)C [Example M13, methyl ((1S)-1-(((1R,3S,5R)-3-(4-(4-((E)-2-(4-(2-((1R,3S,5R)-2-((2S)-2-((methoxycarbonyl)amino)-3-methylbutanoyl)-2-azabicyclo[3.1.0]hex-3-yl)-1H-imidazol-4-yl)phenyl)vinyl)phenyl)-1H-imidazol-2-yl)-2-azabicyclo[3.1.0]hex-2-yl)carbonyl)-2-methylpropyl)carbamate]",0.002 to 0.099 nM
7,"COC(=O)N[C@H](C(=O)N1[C@H](c2ncc(-c3ccc(C#Cc4ccc(-c5cnc([C@@H]6C[C@@H]7C[C@@H]7N6C(=O)[C@@H](NC(=O)OC)C6CCOCC6)[nH]5)cc4)cc3)[nH]2)C[C@@H]2C[C@@H]21)C1CCOCC1 [Example N9, dimethyl (1,2-ethynediylbis(4,1-phenylene-1H-imidazole-4,2-diyl(1S,3S,5S)-2-azabicyclo[3.1.0]hexane-3,2-diyl((1S)-2-oxo-1-(tetrahydro-2H-pyran-4-yl)-2,1-ethanediyl)))biscarbamate]",0.002 to 0.099 nM
8,"O=C([C@H](O)c1ccccc1)N1CCC[C@H]1c1nc(-c2ccc(Oc3ccc(-c4cnc([C@@H]5CCCN5C(=O)[C@H](O)c5ccccc5)[nH]4)cc3)cc2)c[nH]1 [OL-2, (1R)-2-((2S)-2-(4-(4-(4-(2-((2S)-1-((2R)-2-hydroxy-2-phenylacetyl)-2-pyrrolidinyl)-1H-imidazol-5-yl)phenoxy)phenyl)-1H-imidazol-2-yl)-1-pyrrolidinyl)-2-oxo-1-phenylethanol]",1 to 9.9 nM
9,"COC(=O)N[C@H](C(=O)N1[C@@H]2C[C@@H]2C[C@H]1c1nc(-c2ccc(C#Cc3ccc(-c4c[nH]c([C@@H]5C[C@H]6C[C@H]6N5C(=O)[C@@H](NC(=O)OC)C5CCOCC5)n4)cc3)cc2)c[nH]1)C(C)C [Example M7, methyl ((1S)-1-(((1R,3S,5R)-3-(4-(4-((4-(2-((1R,3S,5R)-2-((2S)-2-((methoxycarbonyl)amino)-2-(tetrahydro-2H-pyran-4-yl)acetyl)-2-azabicyclo[3.1.0]hex-3-yl)-1H-imidazol-4-yl)phenyl)ethynyl)phenyl)-1H-imidazol-2-yl)-2-azabicyclo[3.1.0]hex-2-yl)carbonyl)-2-methylpropyl)carbamate]",0.002 to 0.099 nM
10,"CNC(=O)N[C@@H](C(=O)N1CCC[C@H]1c1nc(-c2ccc(COCc3ccc(-c4cnc([C@@H]5CCCN5C(=O)[C@H](NC(=O)NC)c5ccccc5)[nH]4)cc3)cc2)c[nH]1)c1ccccc1 [OL-17, 1-methyl-3-((1R)-2-((2S)-2-(4-(4-(((4-(2-((2S)-1-((2R)-2-((methylcarbamoyl)amino)-2-phenylacetyl)-2-pyrrolidinyl)-1H-imidazol-5-yl)benzyl)oxy)methyl)phenyl)-1H-imidazol-2-yl)-1-pyrrolidinyl)-2-oxo-1-phenylethyl)urea]",0.002 to 0.099 nM
11,"COC(=O)N[C@H](C(=O)N1[C@@H]2C[C@@H]2C[C@H]1c1ncc(-c2cccc(C#Cc3cccc(-c4cnc([C@@H]5C[C@H]6C[C@H]6N5C(=O)[C@@H](NC(=O)OC)C5CCOCC5)[nH]4)c3)c2)[nH]1)C1CCOCC1 [Example J4, dimethyl (1,2-ethynediylbis(3,1-phenylene-1H-imidazole-4,2-diyl(1R,3S,5R)-2-azabicyclo[3.1.0]hexane-3,2-diyl((1S)-2-oxo-1-(tetrahydro-2H-pyran-4-yl)-2,1-ethanediyl)))biscarbamate]",0.002 to 0.099 nM
12,"COC(=O)N[C@H](C(=O)N1[C@H](c2ncc(-c3ccc(C#Cc4ccc(-c5cnc([C@@H]6C[C@@H]7C[C@@H]7N6C(=O)[C@@H](NC(=O)OC)C(C)C)[nH]5)cc4)cc3)[nH]2)C[C@@H]2C[C@@H]21)C(C)C [Example N8, methyl((1S)-1-(((1S,3S,5S)-3-(4-(4-((4-(2-((1S,3S,5S)-2-((2S)-2-((methoxycarbonyl)amino)-3-methylbutanoyl)-2-azabicyclo[3.1.0]hex-3-yl)-1H-imidazol-4-yl)phenyl)ethynyl)phenyl)-1H-imidazol-2-yl)-2-azabicyclo[3.1.0]hex-2-yl)carbonyl)-2-methylpropyl)carbamate]",10 to 350 nM
13,"CN(C)[C@@H](C(=O)N1CCC[C@H]1c1ncc(-c2ccc(COCc3cccc(-c4cnc([C@@H]5CCCN5C(=O)[C@@H](c5ccccc5)N(C)C)[nH]4)c3)cc2)[nH]1)c1ccccc1 [OL-20, (1R)-2-((2S)-2-(4-(3-(((4-(2-((2S)-1-((2R)-2-(dimethylamino)-2-phenylacetyl)-2-pyrrolidinyl)-1H-imidazol-4-yl)benzyl)oxy)methyl)phenyl)-1H-imidazol-2-yl)-1-pyrrolidinyl)-N,N-dimethyl-2-oxo-1-phenylethanamine]",0.1 to 0.99 nM
14,"COC(=O)N[C@H](C(=O)N1[C@@H]2C[C@@H]2C[C@H]1c1nc(-c2ccc(C#Cc3ccc(-c4c[nH]c([C@@H]5C[C@H]6C[C@H]6N5C(=O)[C@@H](NC(=O)OC)C5CCOCC5)n4)cc3)cc2)c[nH]1)C1CCOCC1 [Example M6, dimethyl (1,2-ethynediylbis(4,1-phenylene-1H-imidazole-4,2-diyl(1R,3S,5R)-2-azabicyclo[3.1.0]hexane-3,2-diyl((1S)-2-oxo-1-(tetrahydro-2H-pyran-4-yl)-2,1-ethanediyl)))biscarbamate]",0.002 to 0.099 nM
15,"COC(=O)N[C@H](C(=O)N1[C@@H]2C[C@@H]2C[C@H]1c1nc(-c2ccc(C#Cc3ccc(-c4c[nH]c([C@@H]5C[C@H]6C[C@H]6N5C(=O)[C@@H](NC(=O)OC)C(C)C)n4)cc3)cc2)c[nH]1)C(C)C [Example M3, methyl ((1S)-1-(((1R,3S,5R)-3-(4-(4-((4-(2-((1R,3S,5R)-2-((2S)-2-((methoxycarbonyl)amino)-3-methylbutanoyl)-2-azabicyclo[3.1.0]hex-3-yl)-1H-imidazol-4-yl)phenyl)ethynyl)phenyl)-1H-imidazol-2-yl)-2-azabicyclo[3.1.0]hex-2-yl)carbonyl)-2-methylpropyl)carbamate]",0.002 to 0.099 nM
